In patent US11332473B2, “Substituted pyrazolo[3,4-d]pyrimidines as Wee1 inhibitors” (NUVATION BIO INC., priority 2019, dated 2022):

Assays:
PKMYT1 kinase = PKMYT1 kinase (Homo sapiens (Human), UniProt Q99640); assay: PKMYT1 IC50 determination, HotSpot Kinase Assay; format: biochemical; settings: 10 μM ATP, 33P-ATP, Myelin Basic Protein substrate
Method: Inhibition of PKMYT1 kinase activity by test compounds was measured by the HotSpot Kinase Assay at Reaction Biology Corporation (Malvern, Pa.). Briefly, Myelin Basic Protein substrate was prepared in Reaction Buffer (20 mM Hepes (pH 7.5), 10 mM MgCl2, 1 mM EGTA, 0.01% Brij35, 0.02 mg/mL BSA, 0.1 mM Na3VO4, 2 mM DTT, 1% DMSO). PKMYT1 kinase was delivered into the substrate solution and gently mixed. Test compounds in 100% DMSO were added into the kinase reaction mixture by Acoustic technology (Echo550; nanoliter range) and incubated for 20 min at room temperature. ^33P-ATP was delivered into the reaction mixture to initiate the reaction. Reactions were carried out at 10 μM ATP. After a 2 hour incubation at room temperature, kinase activity was detected by P81 filter-binding method. […] A nonlinear regression model with a sigmoidal dose response and variable slope within GraphPad Prism (GraphPad Software, San Diego, Calif.) was used to calculate the IC50 value of individual test compounds.

A427 cells = assay: Cytotoxicity assay in A427 cell line (resazurin); format: cell-based; settings: Homo sapiens, A-427; A427 lung epithelial cell line, 72 hr, inhibition of proliferation
Method: A427 (HTB-53; ATCC), a lung epithelial cell line, was seeded in medium (MEM, 41090101; Gibco) at a cell count of 1500 cells per 100 μL per well in a 96 well edge plate (167425; ThermoFisher). Cells were allowed to grow at 37° C. for 24 hr in 5% CO2 environment (culture conditions) in a Nuaire incubator (humidified). Serially diluted test compounds (100 μL) within the desired testing concentration ranges were added to the culture plate and the cells were further incubated in culture conditions for 72 hr. The experiment was terminated at the designated incubation time by replacing the medium with 100 μL of 1 mM of resazurin (R7017; Sigma) prepared in culture medium, and the plates were further incubated in culture conditions for 4-6 hr. Fluorescence was recorded using a multimodal plate reader (Biotek Synergy Neo) at an excitation wavelength of 535 nm and emission wavelength of 590 nm to obtain relative fluorescence units. Data were analysed as follows: the background fluorescence (blank containing only medium) value was subtracted from each reading and normalized with the vehicle control (DMSO treated cells) to obtain percent survival/proliferation. Percent survival was subtracted from 100 to get the percent inhibition of proliferation which was used to calculate IC50 values. Potency of compounds in other cell lines (such as A549, AsPc-1, Panc 10.05, A172, U-87MG) may be determined in an analogous manner.

[1] = test system: phospho-CDC2 in A427 cells; assay: Phospho-CDC2 (Tyr15) sandwich ELISA in A427 cells; format: cell-based; settings: Homo sapiens, A-427
Method: (§1) Changes in the levels of phospho-CDC2 following treatment of cells with test compounds were assessed by enzyme-linked immunosorbent assay (ELISA). A427 cells or AsPC-1 cells were plated in 6-well plates and cultured for 24 hr to approximately 80-90% confluency. Medium was replaced, and the cells were treated with the vehicle control or the test compound at several different concentrations. After incubation of treated cells in cell culture conditions for a specified time (e.g., 24 hr), cells were rinsed with ice-cold PBS and lysed in 1× cell lysis buffer containing protease inhibitors and phosphatase inhibitors. The cells were scraped from the plate with a cell scraper after a brief incubation on ice and transferred to a centrifuge tube, and then subjected to three freeze-thaw cycles in liquid nitrogen and a 37° C. water bath for further lysis. The lysates were centrifuged to pellet cell debris (using, for example, a 10 min centrifugation of 2000× g at 4° C.) and the supernatants transferred to fresh tubes on ice. The protein concentrations of the samples were estimated by the Bradford method or equivalent. The ELISA was carried out with the PathScan® Phospho-CDC2 (Tyr15) Sandwich ELISA Kit (Cat. #7176, Cell Signaling Technology, Danvers, Mass.) according to the manufacturer's instructions.

WEE1 kinase enzyme = WEE1 kinase enzyme (Homo sapiens (Human), UniProt P30291); assay: WEE1 IC50 determination, LanthaScreen Terbium Labeled TR-FRET kinase assay; format: biochemical; settings: WEE1 enzyme 1 nM, ATP 10 μM
Method: IC50 values of compounds against WEE1 kinase enzyme were determined by LanthaScreen™ Terbium Labeled TR-FRET assay. Kinase assays were performed in 1X kinase buffer (#PV6135, Invitrogen, Life Technologies Grand Island, N.Y.) where total reaction volume was 10 μL in low-volume 384-well plates (#4511, Corning). Serially diluted compounds (3-fold) were incubated with WEE1 Enzyme (1 nM) (#PR7373A, Invitrogen, Life Technologies, Grand Island, N.Y.) for 10 min; a mixture of ATP (10 μM) (#A1852, Sigma, St. Louis, Mo.) and fluorescent-PolyGT substrate (200 nM) (#PV3610, Invitrogen, Life Technologies Grand Island, N.Y.) was added and incubated in dark at room temperature for 1 h. After 1 h, 10 μL stop solution containing Terbium labeled antibody (4 nM) (#PV3529, Invitrogen, Life Technologies Grand Island, N.Y.) and EDTA (#E5134, Sigma, St. Louis, Mo.) (20 mM) in TR-FRET dilution buffer (#PV3574, Invitrogen, Life Technologies Grand Island, N.Y.) was added. Readings were taken in a Synergy Neo Plate reader (BioTek, Winooski, Vt.) at single excitation of 340 nm and dual emission at 495 nm and 520 nm respectively.
The % activity of test samples was calculated as (Sample−Min)*100/(Max−Min). [Max: DMSO control, complete reaction with enzyme & DMSO and Min: No enzyme & DMSO].

[2] = test system: phospho-CDC2 in AsPC-1 cells; assay: Phospho-CDC2 (Tyr15) sandwich ELISA in AsPC-1 cells; format: cell-based; settings: Homo sapiens, ASPC1
Method: as §1

Sequence of WEE1 kinase enzyme (P30291 whole entry): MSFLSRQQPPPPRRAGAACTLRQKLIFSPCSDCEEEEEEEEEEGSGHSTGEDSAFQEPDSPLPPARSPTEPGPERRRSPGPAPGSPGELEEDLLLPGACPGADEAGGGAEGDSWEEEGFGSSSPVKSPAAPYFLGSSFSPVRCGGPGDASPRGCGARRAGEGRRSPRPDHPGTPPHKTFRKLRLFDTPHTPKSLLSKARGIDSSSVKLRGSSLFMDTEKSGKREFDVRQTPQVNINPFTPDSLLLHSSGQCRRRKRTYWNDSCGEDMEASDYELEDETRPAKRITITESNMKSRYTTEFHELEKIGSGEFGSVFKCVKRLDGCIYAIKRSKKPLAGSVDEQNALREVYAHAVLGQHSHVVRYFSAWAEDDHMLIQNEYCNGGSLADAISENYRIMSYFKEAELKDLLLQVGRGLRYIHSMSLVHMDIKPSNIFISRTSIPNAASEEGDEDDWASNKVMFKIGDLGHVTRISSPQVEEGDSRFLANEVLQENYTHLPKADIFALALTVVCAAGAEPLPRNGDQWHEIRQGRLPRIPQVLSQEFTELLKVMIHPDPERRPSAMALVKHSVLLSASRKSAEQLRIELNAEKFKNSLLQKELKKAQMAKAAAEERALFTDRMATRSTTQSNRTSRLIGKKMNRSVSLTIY
Sequence of PKMYT1 kinase (Q99640 whole entry): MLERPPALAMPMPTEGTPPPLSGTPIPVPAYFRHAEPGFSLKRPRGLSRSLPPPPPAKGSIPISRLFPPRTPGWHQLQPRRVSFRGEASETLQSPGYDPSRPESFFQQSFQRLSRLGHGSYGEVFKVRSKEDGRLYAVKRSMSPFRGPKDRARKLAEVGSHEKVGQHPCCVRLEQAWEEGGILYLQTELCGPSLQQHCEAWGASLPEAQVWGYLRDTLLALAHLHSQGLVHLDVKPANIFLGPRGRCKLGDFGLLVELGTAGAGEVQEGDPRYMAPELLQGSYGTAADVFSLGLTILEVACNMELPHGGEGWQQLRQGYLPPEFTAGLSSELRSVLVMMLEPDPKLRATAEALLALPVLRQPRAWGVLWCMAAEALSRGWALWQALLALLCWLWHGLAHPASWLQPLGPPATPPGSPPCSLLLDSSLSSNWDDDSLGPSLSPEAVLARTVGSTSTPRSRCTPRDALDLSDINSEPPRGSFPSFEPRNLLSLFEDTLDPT

Row | Compound | IC50 (PKMYT1 kinase) | IC50 (A427 cells) | IC50 [1] | IC50 (WEE1 kinase enzyme) | IC50 [2]
1 | CC(C)n1c(=O)c2cnc(Nc3ccc4c(c3)CCNC4)nc2n1-c1ccc(F)c(C(C)(C)F)n1 [1.1, 1-(5-fluoro-6-(2-fluoropropan-2-yl)pyridin-2-yl)-2-isopropyl-6-((1,2,3,4-tetrahydroisoquinolin-6-yl)amino)-1,2-dihydro-3H-pyrazolo[3,4-d]pyrimidin-3-one] | 6.57 µM | 3.74 µM | 0.339 µM | 0.006 µM | –
2 | CC(C)(F)c1nc(-n2c3nc(Nc4ccc5c(c4)CCNC5)ncc3c(=O)n2C2CC2)ccc1F [1.2, 2-cyclopropyl-1-(5-fluoro-6-(2-fluoropropan-2-yl)pyridin-2-yl)-6-((1,2,3,4-tetrahydroisoquinolin-6-yl)amino)-1,2-dihydro-3H-pyrazolo[3,4-d]pyrimidin-3-one] | 10.2 µM | 3.41 µM | 0.952 µM | 0.036 µM | –
3 | CCn1c(=O)c2cnc(Nc3ccc4c(c3)CNCC4)nc2n1-c1cccc(C2(C#N)CC2)n1 [1.38, 1-(6-(2-ethyl-3-oxo-6-((1,2,3,4-tetrahydroisoquinolin-7-yl)amino)-2,3-dihydro-1H-pyrazolo[3,4-d]pyrimidin-1-yl)pyridin-2-yl)cyclopropane-1-carbonitrile] | 0.223 µM | 0.401 µM | 0.176 µM | 0.004 µM | –
4 | CC(C)n1c(=O)c2cnc(Nc3ccc4c(c3)CCNC4)nc2n1-c1cccc(C2(C#N)CC2)n1 [1.43, 1-(6-(2-isopropyl-3-oxo-6-((1,2,3,4-tetrahydroisoquinolin-6-yl)amino)-2,3-dihydro-1H-pyrazolo[3,4-d]pyrimidin-1-yl)pyridin-2-yl)cyclopropane-1-carbonitrile] | 5.63 µM | 1.48 µM | 0.32 µM | 0.009 µM | –
5 | CC(C)n1c(=O)c2cnc(Nc3ccc4c(c3)CCNC4(C)C)nc2n1-c1cccc(C2(C#N)CC2)n1 [1.45, 1-(6-(6-(1,1-dimethyl-1,2,3,4-tetrahydroisoquinolin-6-ylamino)-2-isopropyl-3-oxo-2,3-dihydro-1H-pyrazolo[3,4-d]pyrimidin-1-yl)pyridin-2-yl)cyclopropanecarbonitrile] | 1.54 µM | 2.18 µM | 0.066 µM | 0.01 µM | 0.285 µM
6 | CC(C)n1c(=O)c2cnc(Nc3ccc4c(c3)CCNC4)nc2n1-c1ccc(F)c(C(C)(C)O)n1 [1.249, 1-(5-fluoro-6-(2-hydroxypropan-2-yl)pyridin-2-yl)-2-isopropyl-6-((1,2,3,4-tetrahydroisoquinolin-6-yl)amino)-1,2-dihydro-3H-pyrazolo[3,4-d]pyrimidin-3-one] | 20.1 µM | 0.592 µM | 0.23 µM | 0.016 µM | –
7 | CC(C)n1c(=O)c2cnc(Nc3ccc4c(c3)CCNC4)nc2n1-c1nc(C(C)(C)C#N)ccc1F [1.321, 2-(5-fluoro-6-(2-isopropyl-3-oxo-6-(1,2,3,4-tetrahydroisoquinolin-6-ylamino)-2,3-dihydro-1H-pyrazolo[3,4-d]pyrimidin-1-yl)pyridin-2-yl)-2-methylpropanenitrile] | 11.2 µM | 3.54 µM | – | 0.013 µM | –
8 | CC(C)n1c(=O)c2cnc(Nc3ccc4c(c3)CNCC4)nc2n1-c1nc(C(C)(C)C)c(Cl)s1 [1.349, 1-(4-(tert-butyl)-5-chlorothiazol-2-yl)-2-isopropyl-6-((1,2,3,4-tetrahydroisoquinolin-7-yl)amino)-1,2-dihydro-3H-pyrazolo[3,4-d]pyrimidin-3-one] | 19.9 µM | 0.49 µM | – | 0.384 µM | –
9 | CC(C)n1c(=O)c2cnc(Nc3ccc4c(c3)CCNC4)nc2n1-c1csc(C2CC2)n1 [1.464, 1-(2-cyclopropylthiazol-4-yl)-2-isopropyl-6-((1,2,3,4-tetrahydroisoquinolin-6-yl)amino)-1,2-dihydro-3H-pyrazolo[3,4-d]pyrimidin-3-one] | 28.8 µM | 24.6 µM | – | 0.049 µM | –
10 | CC(C)n1c(=O)c2cnc(Nc3ccc4c(c3)CNCC4)nc2n1-c1csc(C2CC2)n1 [1.465, 1-(2-cyclopropylthiazol-4-yl)-2-isopropyl-6-((1,2,3,4-tetrahydroisoquinolin-7-yl)amino)-1,2-dihydro-3H-pyrazolo[3,4-d]pyrimidin-3-one] | > 30 µM | > 30 µM | – | 0.045 µM | –
